8 molecules from patent publication US20230312550A1, “N-(2-(4-CYANOTHIAZOLIDIN-3-YL)-2-OXOETHYL)-QUINOLINE-4-CARBOXAMIDES” (AstraZeneca AB, priority 2020, published 2023) can be followed below.

Converted amounts (≈) assume the structure as drawn.

One may read the Papp A→B as the apparent permeability from the apical to the basolateral side of a cell layer. By Papp B→A is commonly meant how fast a substance crosses the layer from the basolateral side. A word on the efflux ratio: it is a quotient of directional permeabilities that is used to spot active efflux. The microsomal CLint is the capacity of the preparation to metabolise the compound, expressed as a volume cleared per time. In general, IC50 refers to the point on the concentration scale where inhibition reaches its midpoint. Usually solubility stands for the concentration that dissolves in the medium under given conditions. Read a low solubility as little dissolved substance. Broadly, the Kd is the constant that tells how readily two partners part at equilibrium. The low end stands for higher affinity, the high end for lower affinity. In general, Papp refers to a coefficient for how fast a substance crosses the barrier.

The nature of data set [1]: Metabolic stability in human hepatocytes (hHep). The following applies: n = 1 or geometric mean of n = 2. It is filed as in vitro ADME.
Data set [2] in a line: Metabolic stability in rat hepatocytes (rHep). As to conditions: n = 1 or geometric mean of n = 2-3.
A further data set is described as follows: Caco-2 cell permeability. The following applies: human.
Data set [3] in a line: Metabolic stability in human liver microsomes (HLM). As to conditions: human. A general note: Liver microsomes are a subcellular fraction often used to study metabolism.
Experimental: Metabolic stability in HLM was measured as described in J Comput Aided Mol Des 2015, 29, 795.
Data set [4] concerns the target human Fibroblast activation protein alpha (hFAP) (Homo sapiens (Human), UniProt Q12884). In words: hFAP inhibition assay (tight binders). Note: hFAP 2.4 pM. It is filed as biochemical. The following applies: Ala-Pro-AMC 20 μM, n = 1 or geometric mean n = 2-6. Here is the method:
The plates were read on a PHERAstar® reader with excitation 340 nm and emission 460 nm. Data were analyzed in Genedata Screener®. IC50 values were determined by plotting % inhibition versus log compound concentration and using a one site dose response model.

A further data set is described as follows: Kinetic solubility. The following applies: kinetic from dmso stock.
The target of another data set is hFAP (M39-A757) (Homo sapiens (Human), UniProt Q12884). In words: hFAP binding assay (surface plasmon resonance). As to conditions: SPR, 20° C.; for hFAP Binding assay k(off) / hFAP Binding assay k(on): single cycle kinetics; for Kd: n = 1 or geometric mean n = 2-4.
Data set [5] has as its target Prolyl endopeptidase, Prolyl Oligopeptidase (hPREP) (Homo sapiens (Human), UniProt P48147). In words: hPrep inhibition assay. It is filed as biochemical. The following applies: hPREP 0.6 nM, Z-Gly-Pro-amino-methylcoumarin 50 μM; read-out: PREP IC50. A digest of the protocol: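 Recombinant human PREP at 0.6 nM final with Z-Gly-Pro-AMC substrate at 50 μM final in Tris-HCl pH 7.5, NaCl, Triton X-100, glutathione; 15 min rt preincubation then 20 min rt reaction in dark. AMC fluorescence (ex 340/em 460 nm); IC50 from one-site dose-response fit of % inhibition.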

The next data set deals with FAP (Homo sapiens (Human), UniProt Q12884). As to the kind of experiment: hFAP inhibition assay. It counts as biochemical. As to conditions: hFAP […], Ala-Pro-AMC 20 μM; n = 1 or geometric mean n = 2-3. A digest of the protocol: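 Human FAP (0.48 nM) in 100 mM Tris HCl, 100 mM NaCl, 0.05% Chaps, pH 7.4 was preincubated 15 min at rt in the dark with compounds (10-point, 3-fold series from 50 μM). Substrate was added from a 40 μM solution, then 30 min at rt. Fluorescence read at ex 340/em 460 nm; IC50 from one-site dose-response fit of % inhibition.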

The mark [6] stands for this setting: HLM CLint, n = 1 or average of n = 2-3.
[7] abbreviates: Solubility, kinetic solubility, n = 1 or average of n = 2-3.

Chain of FAP (Q12884 38-760): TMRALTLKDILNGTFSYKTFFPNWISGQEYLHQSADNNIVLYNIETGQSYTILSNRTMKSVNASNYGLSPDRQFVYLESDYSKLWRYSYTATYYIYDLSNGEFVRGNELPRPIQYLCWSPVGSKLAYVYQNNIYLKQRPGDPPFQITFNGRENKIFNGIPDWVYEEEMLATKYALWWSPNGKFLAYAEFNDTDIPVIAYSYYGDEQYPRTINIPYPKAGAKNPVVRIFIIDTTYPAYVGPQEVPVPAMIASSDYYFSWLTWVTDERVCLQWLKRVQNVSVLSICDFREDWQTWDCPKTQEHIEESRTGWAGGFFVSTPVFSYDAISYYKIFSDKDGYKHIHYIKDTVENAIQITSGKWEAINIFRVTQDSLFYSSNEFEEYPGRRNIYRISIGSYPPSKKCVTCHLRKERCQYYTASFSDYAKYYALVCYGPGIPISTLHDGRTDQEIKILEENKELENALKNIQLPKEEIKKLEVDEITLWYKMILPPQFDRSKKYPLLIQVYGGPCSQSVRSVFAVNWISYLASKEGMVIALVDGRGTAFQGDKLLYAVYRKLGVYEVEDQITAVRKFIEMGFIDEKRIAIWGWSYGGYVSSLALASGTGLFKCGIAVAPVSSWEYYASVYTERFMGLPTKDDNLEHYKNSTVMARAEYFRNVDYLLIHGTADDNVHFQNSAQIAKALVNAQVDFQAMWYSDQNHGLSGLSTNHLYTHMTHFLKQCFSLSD
Chain of human Fibroblast activation protein alpha (hFAP) (Q12884 38-760): as above
Chain of Prolyl endopeptidase, Prolyl Oligopeptidase (hPREP) (P48147 whole entry): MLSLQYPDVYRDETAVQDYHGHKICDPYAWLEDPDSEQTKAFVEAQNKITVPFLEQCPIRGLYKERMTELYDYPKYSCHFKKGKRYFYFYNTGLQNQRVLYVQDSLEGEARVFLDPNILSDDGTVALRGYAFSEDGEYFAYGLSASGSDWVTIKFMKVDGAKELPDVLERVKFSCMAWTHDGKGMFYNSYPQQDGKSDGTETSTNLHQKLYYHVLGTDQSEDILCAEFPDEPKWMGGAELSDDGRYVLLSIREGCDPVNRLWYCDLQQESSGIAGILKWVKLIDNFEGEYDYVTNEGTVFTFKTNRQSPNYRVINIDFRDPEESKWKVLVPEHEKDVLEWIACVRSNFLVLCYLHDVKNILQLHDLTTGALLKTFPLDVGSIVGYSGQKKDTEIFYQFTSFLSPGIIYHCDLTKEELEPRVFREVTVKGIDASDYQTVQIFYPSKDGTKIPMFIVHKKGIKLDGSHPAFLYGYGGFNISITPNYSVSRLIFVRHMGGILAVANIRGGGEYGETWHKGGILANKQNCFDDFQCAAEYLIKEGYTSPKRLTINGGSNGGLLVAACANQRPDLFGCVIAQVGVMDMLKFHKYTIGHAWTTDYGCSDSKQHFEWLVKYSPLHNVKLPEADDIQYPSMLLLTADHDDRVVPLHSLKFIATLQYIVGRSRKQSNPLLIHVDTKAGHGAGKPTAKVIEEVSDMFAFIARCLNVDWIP
Chain of hFAP (M39-A757) (Q12884 39-757): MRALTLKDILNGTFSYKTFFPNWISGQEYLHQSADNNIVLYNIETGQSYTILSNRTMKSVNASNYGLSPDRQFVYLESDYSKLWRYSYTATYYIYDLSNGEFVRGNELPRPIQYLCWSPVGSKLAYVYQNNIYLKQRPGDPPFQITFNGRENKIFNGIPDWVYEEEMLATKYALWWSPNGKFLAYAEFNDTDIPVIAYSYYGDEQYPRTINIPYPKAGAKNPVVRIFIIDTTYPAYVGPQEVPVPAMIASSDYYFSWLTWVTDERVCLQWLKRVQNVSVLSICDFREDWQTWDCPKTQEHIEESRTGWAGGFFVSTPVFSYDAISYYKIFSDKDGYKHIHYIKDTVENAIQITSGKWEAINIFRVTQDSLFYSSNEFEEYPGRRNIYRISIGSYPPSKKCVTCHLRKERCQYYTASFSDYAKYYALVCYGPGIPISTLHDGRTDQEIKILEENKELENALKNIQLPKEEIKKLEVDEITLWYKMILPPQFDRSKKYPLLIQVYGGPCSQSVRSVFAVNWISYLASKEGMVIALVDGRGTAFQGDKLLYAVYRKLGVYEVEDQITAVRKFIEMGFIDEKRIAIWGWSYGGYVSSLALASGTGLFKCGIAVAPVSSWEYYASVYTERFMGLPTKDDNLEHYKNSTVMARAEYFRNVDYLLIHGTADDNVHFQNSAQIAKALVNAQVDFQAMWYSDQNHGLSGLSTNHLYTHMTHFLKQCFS
Experimental for Caco-2 cell permeability: Caco-2 cell permeability was measured as described in Mol Pharm 2017, 14, 1601.
Experimental for Kinetic solubility: Kinetic solubility was measured as described in Comput Aided Mol Des 2015, 29, 795.

As for `N#C[C@@H]1CSCN1C(=O)CNC(=O)c1ccnc2ccc(N3CC(F)C3)cc12` [Example 21, (R)—N-(2-(4-Cyanothiazolidin-3-yl)-2-oxoethyl)-6-(3-fluoroazetidin-1-yl)quinoline-4-carboxamide], the “hHep CLint” value in [1] is listed as <1 μL/min/1E6. Further, in data set [2], the “rHep CLint” value came to 17 μL/min/1E6. In “Caco-2 cell permeability”, the apparent permeability from apical to basolateral (Papp A→B) is 3.7 ×10⁻⁶ cm/s, the Papp B→A came to 23 ×10⁻⁶ cm/s and the efflux ratio amounted to 6.2. The molecule further showed an intrinsic clearance (microsomal CLint) in data set [3] (setting [6]) of 15 µL/min/mg. Further, the IC50 in data set [4] was determined as 0.11 nM. Moreover, the solubility in the data set “Kinetic solubility” (setting [7]) is 390 µM (≈ 156 µg/mL). Further, on hFAP (M39-A757), the “hFAP Binding assay k(off)” value is 0.0002 s⁻¹, the “hFAP Binding assay k(on)” value is 3000000 M⁻¹ s⁻¹ and the Kd was found to be 0.066 nM. In addition, in [5], the half-maximal inhibitory concentration (IC50) was determined as 93 nM. The molecule further displayed an IC50 on FAP of 0.29 nM.
For `COCC1(C)CN(c2ccc3nccc(C(=O)NCC(=O)N4CSC[C@H]4C#N)c3c2)C1` [Example 29, (R)—N-(2-(4-Cyanothiazolidin-3-yl)-2-oxoethyl)-6-(3-(methoxymethyl)-3-methylazetidin-1-yl)quinoline-4-carboxamide], the “hHep CLint” value in [1] is recorded as <1 μL/min/1E6. Also, the “rHep CLint” value in [2] amounted to 4.5 μL/min/1E6. For the same molecule, in the data set “Caco-2 cell permeability”, the apparent permeability (Papp) stood at 26 ×10⁻⁶ cm/s, the Papp A→B was 3.7 ×10⁻⁶ cm/s, the Papp B→A turned out to be 37 ×10⁻⁶ cm/s and the efflux ratio was found to be 10. The molecule also yielded a microsomal CLint in data set [3] (setting [6]) of 18 µL/min/mg. Besides, it took 0.055 nM to reach half-maximal inhibition in data set [4] (IC50). Besides, the solubility in the data set “Kinetic solubility” (setting [7]) is 560 µM (≈ 246 µg/mL). Further, at hFAP (M39-A757), the “hFAP Binding assay k(off)” value was 0.000061 s⁻¹, the “hFAP Binding assay k(on)” value came out at 1100000 M⁻¹ s⁻¹ and binding was characterised by a dissociation constant (Kd) of 0.057 nM. The IC50 in [5] is 500 nM. Besides, at FAP, half-maximal inhibition (IC50) was put at 0.13 nM.
Take `C[C@@H]1COC[C@H](C)N1c1ccc2nccc(C(=O)NCC(=O)N3CSC[C@H]3C#N)c2c1` [Example 90, N-(2-((R)-4-Cyanothiazolidin-3-yl)-2-oxoethyl)-6-((3S,5R)-3,5-dimethyl-morpholino)quinoline-4-carboxamide]: the “hHep CLint” value in data set [1] was determined as 4.6 μL/min/1E6. The “rHep CLint” value in [2] is 20 μL/min/1E6. In the data set “Caco-2 cell permeability”, the Papp A→B worked out at 1.2 ×10⁻⁶ cm/s, the Papp B→A is 19 ×10⁻⁶ cm/s and the efflux ratio is 16. In addition, the microsomal CLint in [3] (setting [6]) came out at 100 µL/min/mg. Moreover, the IC50 in data set [4] came out at 0.35 nM. The solubility in “Kinetic solubility” (setting [7]) was > 1000 µM. At hFAP (M39-A757), the “hFAP Binding assay k(off)” value is 0.00010 s⁻¹, the “hFAP Binding assay k(on)” value stood at 480000 M⁻¹ s⁻¹ and binding was characterised by a dissociation constant (Kd) of 0.38 nM. In addition, in data set [5], the IC50 came out at 1100 nM. This molecule showed an IC50 at FAP of 0.75 nM.
Consider `CC1(C)COC12CN(c1ccc3nccc(C(=O)NCC(=O)N4CSC[C@H]4C#N)c3c1)C2` [Example 18, (R)—N-(2-(4-Cyanothiazolidin-3-yl)-2-oxoethyl)-6-(3,3-dimethyl-1-oxa-6-azaspiro[3.3]heptan-6-yl)quinoline-4-carboxamide], for which the “hHep CLint” value in data set [1] turned out to be 3.7 μL/min/1E6. In addition, in data set [2], the “rHep CLint” value was determined as 6 μL/min/1E6. Also, in “Caco-2 cell permeability”, the Papp was found to be 13 ×10⁻⁶ cm/s, the apical-to-basolateral permeability (Papp A→B) stood at 0.9 ×10⁻⁶ cm/s, the Papp B→A worked out at 31 ×10⁻⁶ cm/s and the efflux ratio stood at 34. Further, the microsomal CLint in data set [3] is 22 µL/min/mg. Besides, it took 0.047 nM to reach half-maximal inhibition in data set [4] (IC50). In “Kinetic solubility”, this molecule came in with a solubility of 93 µM (≈ 42 µg/mL). At hFAP (M39-A757), the “hFAP Binding assay k(off)” value turned out to be 0.000059 s⁻¹, the “hFAP Binding assay k(on)” value turned out to be 1400000 M⁻¹ s⁻¹ and the equilibrium dissociation constant (Kd) came to 0.068 nM. Moreover, the IC50 in [5] was found to be 570 nM. The molecule also returned an IC50 against FAP of 0.19 nM.
As for `CC1(C)Cc2c(-c3ccc4nccc(C(=O)NCC(=O)N5CSC[C@H]5C#N)c4c3)cnn2C1` [Example 123, (R)—N-(2-(4-Cyanothiazolidin-3-yl)-2-oxoethyl)-6-(5,5-dimethyl-5,6-dihydro-4H-pyrrolo[1,2-b]pyrazol-3-yl)quinoline-4-carboxamide], in [1], the “hHep CLint” value turned out to be 1.6 μL/min/1E6. Further, in data set [2], the “rHep CLint” value was 7.1 μL/min/1E6. In “Caco-2 cell permeability”, the Papp was determined as 14 ×10⁻⁶ cm/s, the apical-to-basolateral permeability (Papp A→B) came to 0.17 ×10⁻⁶ cm/s, the Papp B→A stood at 29 ×10⁻⁶ cm/s and the efflux ratio was found to be 170. In data set [3] (setting [6]), this molecule showed a microsomal CLint of 32 µL/min/mg. This molecule also came in with a concentration for half-maximal inhibition (IC50) in data set [4] of 0.083 nM. Moreover, the concentration in solution in “Kinetic solubility” (setting [7]) (solubility) was 280 µM (≈ 129 µg/mL). Further, at hFAP (M39-A757), the “hFAP Binding assay k(off)” value was found to be 0.00042 s⁻¹, the “hFAP Binding assay k(on)” value worked out at 3000000 M⁻¹ s⁻¹ and binding was put at a Kd of 0.14 nM. Moreover, in data set [5], the IC50 came out at 740 nM. At FAP, this molecule displayed a 50% inhibitory concentration (IC50) of 0.25 nM.
As to `CC1(CS(C)(=O)=O)CN(c2ccc3nccc(C(=O)NCC(=O)N4CSC[C@H]4C#N)c3c2)C1` [Example 188, (R)—N-(2-(4-Cyanothiazolidin-3-yl)-2-oxoethyl)-6-(3-methyl-3-((methylsulfonyl)methyl)azetidin-1-yl)quinoline-4-carboxamide], the “hHep CLint” value in [1] is <1 μL/min/1E6. The “rHep CLint” value in [2] was 1.8 μL/min/1E6. In addition, in “Caco-2 cell permeability”, the Papp amounted to 0.28 ×10⁻⁶ cm/s, the Papp A→B was found to be 0.18 ×10⁻⁶ cm/s, the Papp B→A came to 3.7 ×10⁻⁶ cm/s and the efflux ratio worked out at 21. This molecule gave a microsomal CLint in [3] (setting [6]) of 3.1 µL/min/mg. Inhibition in [4] was half-maximal at 0.19 nM (IC50). In “Kinetic solubility” (setting [7]), this molecule returned a solubility of 990 µM (≈ 483 µg/mL). At hFAP (M39-A757), the “hFAP Binding assay k(off)” value turned out to be 0.000022 s⁻¹, the “hFAP Binding assay k(on)” value amounted to 2600000 M⁻¹ s⁻¹ and the Kd amounted to 0.011 nM. The concentration for half-maximal inhibition (IC50) in data set [5] is 430 nM. Besides, on FAP, the half-maximal inhibitory concentration (IC50) came out at 0.28 nM.
Take `CS(=O)(=O)C[C@H]1CN(c2ccc3nccc(C(=O)NCC(=O)N4CSC[C@H]4C#N)c3c2)CCO1` [Example 92, N-(2-((R)-4-Cyanothiazolidin-3-yl)-2-oxoethyl)-6-((R)-2-((methylsulfonyl)-methyl)morpholino)quinoline-4-carboxamide]: the “hHep CLint” value in [1] is <1 μL/min/1E6. For the same molecule, the “rHep CLint” value in data set [2] was 1.7 μL/min/1E6. Further, in “Caco-2 cell permeability”, the apparent permeability from apical to basolateral (Papp A→B) is 0.12 ×10⁻⁶ cm/s, the Papp B→A was found to be 4.2 ×10⁻⁶ cm/s and the efflux ratio is 35. Also, in data set [3] (setting [6]), the microsomal CLint stood at 14 µL/min/mg. Moreover, the IC50 in [4] is 0.074 nM. This molecule displayed a solubility in the data set “Kinetic solubility” (setting [7]) of 810 µM (≈ 408 µg/mL). For the same molecule, at hFAP (M39-A757), the “hFAP Binding assay k(off)” value worked out at 0.00011 s⁻¹, the “hFAP Binding assay k(on)” value was 2200000 M⁻¹ s⁻¹ and the Kd was found to be 0.047 nM. Further, in [5], the half-maximal inhibitory concentration (IC50) came to 2400 nM.
Turning to `N#C[C@@H]1CSCN1C(=O)CNC(=O)c1ccnc2ccc(N3CCCCO3)cc12` [Example 1, (R)—N-(2-(4-Cyanothiazolidin-3-yl)-2-oxoethyl)-6-(1,2-oxazinan-2-yl)-quinoline-4-carboxamide], in data set [1], the “hHep CLint” value was <1 μL/min/1E6. The “rHep CLint” value in data set [2] came to 4.9 μL/min/1E6. Moreover, in the data set “Caco-2 cell permeability”, the Papp A→B came out at 4.7 ×10⁻⁶ cm/s, the apparent permeability from basolateral to apical (Papp B→A) turned out to be 29 ×10⁻⁶ cm/s and the efflux ratio amounted to 6.1. The microsomal CLint in data set [3] (setting [6]) came out at 14 µL/min/mg. Further, in data set [4], the half-maximal inhibitory concentration (IC50) was 0.099 nM. Moreover, the solubility in the data set “Kinetic solubility” (setting [7]) is > 1000 µM. Besides, on hFAP (M39-A757), the “hFAP Binding assay k(off)” value worked out at 0.00014 s⁻¹; the “hFAP Binding assay k(on)” value was determined as 730000 M⁻¹ s⁻¹; the affinity, expressed as Kd, was 0.18 nM. In data set [5], the concentration for half-maximal inhibition (IC50) came to 410 nM.
